# Test results reported in US10028992B2, “Methods of treating muscular dystrophy” (BOARD OF REGENTS OF THE NEVADA SYSTEM OF HIGHER EDUCATION …, priority 2012, dated 2018).
# Tested on: α7 integrin promoter
# Assay: muscle cell-based assay: α7βgal+/− myoblasts/myotubes, LacZ reporter, β-galactosidase cleavage of FDG
# Design: species or system mouse
# Details: Myotubes; for Results in a α7+/− β-galactosidase assay, Myotubes, 0.5 uM: compound at 0.5 uM; for Results in a α7+/− β-galactosidase assay, Myotubes, 1 uM: compound at 1 uM; for Results in a α7+/− β-galactosidase assay, Myotubes, 5 uM: compound at 5 uM; for Results in a α7+/− β-galactosidase assay, Myotubes, 10 uM: compound at 10 uM; for Results in a α7+/− β-galactosidase assay, Myotubes, 20 uM: compound at 20 uM; for Results in a α7+/− β-galactosidase assay, Myotubes, 40 uM: compound at 40 uM
# Method in brief: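 Primary α7βgal+/− mouse myoblasts (LacZ knocked into α7 integrin exon 1, promoter retained), differentiated; promoter activity read as β-galactosidase conversion of non-fluorescent FDG to fluorescein. Hits followed by dose-response, western analysis and myostatin counterscreen.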
SMILES,"Results in a α7+/− β-galactosidase assay, Myotubes, 0.5 uM","Results in a α7+/− β-galactosidase assay, Myotubes, 1 uM","Results in a α7+/− β-galactosidase assay, Myotubes, 5 uM","Results in a α7+/− β-galactosidase assay, Myotubes, 10 uM","Results in a α7+/− β-galactosidase assay, Myotubes, 20 uM","Results in a α7+/− β-galactosidase assay, Myotubes, 40 uM"
O=C(Nc1ccccc1OC(=O)c1ccc(Cl)cc1)c1ccc(Cl)cc1 [drawing 401],−0.03464,0.02857,−0.09525,−0.1056,−0.1495,−0.3841
CC(NC(=O)c1ccc(C(C)(C)C)cc1)C(c1cccs1)N1CCOCC1 (stereo not drawn) [drawing 402],0.08612,0.07635,0.06551,0.1287,−0.144,−0.1386
CCC(=O)c1ccc(OCC(O)CN2CCOC(C)C2)cc1.O=C(O)C(=O)O (stereo not drawn) [drawing 403],0.08149,0.03201,−0.09666,−0.1187,0.08332,0.1461
CC1CCN(C(CNS(=O)(=O)c2ccccc2)c2ccccc2)CC1 (stereo not drawn) [drawing 404],0.1307,0.1946,−0.1201,−0.1176,−0.1296,−0.1429
COC(=O)c1ccc(/N=N/c2ccccc2)cc1 [drawing 405],−0.111,0.1978,−0.1462,−0.2093,−0.1861,−0.2357
CN(CCC1CCCCO1)C(=O)CCc1nnc(CCCCc2ccccc2)o1 (stereo not drawn) [drawing 407],0.03419,0.03033,−0.2337,−0.1125,−0.1283,−0.1202
c1ccc(-c2nn[nH]n2)nc1 [drawing 408],−0.05084,−0.03177,−0.024,−0.07161,0.03157,0.04635
O=C(N/N=C/c1c[nH]c2ccccc12)c1cc(Cl)ccc1O [drawing 409],−0.05672,−0.09286,0.2441,−0.1364,0.01214,−0.2587
O=C(O)C(Cc1ccc(O)cc1)N1C(=O)c2ccccc2C1=O (stereo not drawn) [drawing 411],0.0905,0.1588,0.2927,−0.09211,0.2266,0.06733
CCN(CC)C(=O)c1sc2nc(-c3ccc(OC)cc3)cn2c1C [drawing 412],0.08584,0.05066,0.1198,−0.03387,−0.01472,−0.1357
Cc1ccsc1-c1nnc(S)n1C1CCCCC1 [drawing 413],0.2221,0.09759,0.1567,−0.1231,0.1272,−0.178
O=C(N[C@@H](Cc1c[nH]c2ccccc12)C(=O)O)C1CCN(S(=O)(=O)c2cccs2)CC1 [drawing 414],0.08394,0.03833,0.03594,−0.09429,0.01148,−0.09282
COC(=O)Cn1c(=O)c2c(nc3n2CC(C)CN3Cc2ccccc2)n(C)c1=O (stereo not drawn) [drawing 415],0.05467,0.04855,−0.1372,−0.2301,0.01742,−0.09631
CCOC(=O)c1cc(C(=O)OCC)c(SCc2ccccc2)nc1O [drawing 416],−0.05564,−0.06589,0.2144,−0.09676,−0.147,−0.37
Oc1nc2ccccc2nc1-c1c[nH]c2ccccc12 [drawing 417],−0.06072,−0.2204,−0.08742,0.05064,−0.4132,−0.2613
O=C(Nc1cc(-c2nc3ccccc3s2)ccc1Cl)c1ccc2c(c1)OCO2 [drawing 418],0.01013,−0.09877,0.05089,0.3348,−0.3294,−0.3941
Cn1c(-c2ccccc2)cc2ccccc21 [drawing 419],−0.1946,−0.1516,0.03646,0.2623,−0.2495,−0.1512
COc1ccc(C(=O)/C=C2\C(=O)Nc3ccccc32)cc1OC [drawing 420],−0.03323,−0.07984,0.02829,0.263,−0.3062,−0.184
CC(C(=O)Nc1ccc(C#N)cc1)N(C)CC(=O)Nc1cccc(F)c1 (stereo not drawn) [drawing 421],0.03075,−0.03964,−0.1345,0.2992,−0.138,0.2085
CC(C(=O)Nc1ccc(C#N)cc1)N(C)CC(=O)Nc1cccc(F)c1 (stereo not drawn) [drawing 422],−0.07067,−0.1638,0.1526,0.4825,−0.1663,0.2317
CC1Cc2ccccc2N1C(=O)CSc1nnc(N)s1 (stereo not drawn) [drawing 423],−0.03474,−0.1188,−0.01338,0.3723,−0.1603,0.2399
CC(C)(C)NC(=O)NC(=O)CN1CCN(Cc2ccccc2)CC1 [drawing 424],0.003071,−0.04272,0.04658,0.4408,−0.2165,0.07828
COc1cc(C=O)ccc1OCC(=O)Nc1ccc2c(c1)OCO2 [drawing 425],−0.1155,−0.1633,0.1998,0.4511,−0.2886,0.003215
Cc1ccccc1NC(=O)c1ccc2c(O)c(Sc3ccccc3)c(=O)[nH]c2c1 [drawing 426],−0.06746,−0.07688,−0.09733,0.01498,−0.07909,−0.1428
Oc1nc(SCc2ccc(Cl)cc2)nc2ccsc12 [drawing 427],0.03102,−0.01338,−0.1454,0.05532,−0.03447,−0.1688
